Test results as given in patent US9150788B2, “Non-amphiphile-based water-in-water emulsion and uses thereof” (Syracuse University, priority 2007, dated 2015).

Tests used:
[1] = system: E. coli biofilm; assay: E. coli biofilm formation on stainless steel surface; format: cell-based; settings: 60 μg/mL, non-toxic concentration
[2] = system: E. coli; assay: E. coli cell growth (toxicity); format: cell-based; settings: 60 μg/mL
[3] = system: AI-2 synthesis; assay: AI-2 synthesis in E. coli, bioluminescence assay with reporter strain Vibrio harveyi BB 170; format: cell-based; settings: 60 μg/mL
Description: Biofilm formation relies on bacteria's secretion and sensing (quorum sensing) of signal molecules (called auto-inducer). […] Furanone #8 and 9 (60 μg/mL) inhibited AI-2 synthesis in E. coli 12.5- and 3.5-fold. […] 96: p. 1639-1644).

[4] = system: AI-2 synthesis; settings: 100 μg/mL; cited from earlier work

Compound | repression of E. coli biofilm formation, % of the surface coverage [1] | E. coli cell growth [2] | inhibition of AI-2 synthesis in E. coli [3] | inhibition of AI-2 synthesis [4]
CC1=CC(=C(Br)Br)OC1=O [furanone #9] | 86% | cell growth not affected | 3.5 fold | 
O=C1O/C(=C/Br)C(Br)=C1CBr [furanone #10] | 91% | cell growth not affected |  | 
CCCCC1=C(Br)/C(=C\Br)OC1=O [furanone #1] |  |  |  | 2 fold
